Reference: patent US11033537B2, “LPT-723 and immune checkpoint inhibitor combinations and methods of treatment” (BIOMED VALLEY DISCOVERIES, INC., priority 2015, dated 2021)
“Also recorded” adds a separate entry of the source.

Experiments:
[1] = Micronucleus assay (flow analysis, 7-day oral toxicity study); assay type: in vivo; conditions: rat blood, Day 8 of 7-day oral study
Description: Prior to necropsy on Day 8, rats in a main study group of a 7-day oral toxicity and toxicokinetic (TK) study were bled from the jugular vein for the evaluation of the flow analysis of micronucleus. […] The procedure used for collection and fixation of blood is summarized below:
Preparation of the Fixative Tubes: Fixative tubes were prepared one day prior to blood collection. Two 15 mL polypropylene centrifuge tubes (VWR no. 21008-103) were required per sample. 2 mL of ultracold fixative-methanol was added to each appropriately labeled tube (Tubes B1 and B2), and caps were replaced. The rack of tubes was placed overnight at approximately −80° C. to allow for sufficient chilling of the fixative.
Preparation of the Anticoagulant/Diluent Vials (prior to blood collection): One vial (2 mL cryovials; VWR no. 66008-728) was required for each sample. 350 μL of anticoagulant/diluent (Prototype Pig-a Mutation Assay Anticoagulant Solution, lot #17716, provided by BioReliance, from Litron) was aseptically aliquoted into each appropriately labeled vial (Tube A). […]
Transferring of Fixed Samples into LTSS: Samples were transferred into LTSS after they had been in the fixative for at least 3 days. […] With a container of ice and a 25 mL pipette ready for aliquoting the buffer solution used below, the following steps were performed as quickly as possible (within approximately 20 seconds). […]

[2] = system: Colon26 murine colon cancer cells; assay: Prophylactic Colon26 colon cancer model; assay type: in vivo, BALB/c mice; conditions: alone or with antibody
Description: Charles River (CR) BALB/c mice were implanted with Colon26 murine colon cancer cells on Day 1, and treatment was initiated on Day 3 with control (vehicle), anti-CTLA-4 (clone 4F10), anti-PD-1 (clone RMP1-14), anti-CTLA-4/anti-PD-1 combination, LPT-723 (10 mpk, 30 mpk), anti-CTLA-4/LPT-723 (10 mpk, 30 mpk) combination, or anti-PD-1/LPT-723 (10 mpk, 30 mpk) combination. Anti-CTLA-4 was dosed i.p. on Day 8 at a dose of 100 μg/animal and on Days 11, and 14 at a dose of 50 μg/animal. Anti-PD-1 was dosed i.p. twice a week for two weeks starting on Day 3 at a dose of 100 μg/animal. LPT-723 was dosed per os (p.o.) twice a day starting on Day 3.

[3] = Mouse 7-day dose range finding study; assay type: in vivo; conditions: 7 days
Description: Preparation of Test and Control/Vehicle Items: Vehicle is 2% TPGS/1.5% HPMCAS-HF/1.5% PVP-VA with 50 mM sodium citrate (pH 5.0) in deionized water. LPT-723 is a spray dried dispersion (SDD) containing 25% active and 75% HPMCAS-HF polymer. Test and vehicle items were stored at room temperature, protected from light, and desiccated. Dose formulation was prepared daily. Unless indicated otherwise, LPT-723 was mixed with vehicle to achieve the desired concentrations, using appropriate mixing equipment to achieve homogenous formulations.
The LPT-723 and vehicle were administered once per day for 7 consecutive days. Doses were administered at approximately the same time (±2 hours) throughout the duration of the study. All main study animals were submitted for necropsy on Day 8 (the day following the final dose).

[4] = system: A20 cells; assay: In vitro cell viability assay, A20; assay type: cell-based, murine; conditions: Mus musculus

SMILES: Cc1cc(-c2cncc(C(O)C(F)(F)F)c2)nc2c1C(=O)N(c1cnn(CC(F)F)c1)C2(C)C (centres unmarked) [LPT-723]
- toxicity, micronucleus flow analysis [1]: No toxicity was observed; also recorded: no significant toxicity
- % TGD ([2]; MR237 10 mg/kg bid): 0%
- T-C ([2]; MR237 10 mg/kg bid): −0
- TFS ([2]; MR237 10 mg/kg bid): 0
- Median TTE ([2]; MR237 10 mg/kg p.o. bid from Day 3 to end): 31.9
- % TGD ([2]; MR237 30 mg/kg bid): 5%
- T-C ([2]; MR237 30 mg/kg bid): 1.7
- TFS ([2]; MR237 30 mg/kg bid): 1
- MTV (n), Day 57 ([2]; MR237 30 mg/kg bid, Day 57): 0 (1)
- Median TTE ([2]; MR237 30 mg/kg p.o. bid from Day 3 to end): 33.7
- tolerability ([3]; mouse, 15, 35, 70 mg/kg/day): well tolerated
- clinical signs and histopathology ([3]; mouse): no clinical signs or histopatholoy findings
- lymphocyte and monocyte counts ([3]; mouse): decrease in lymphocyte and monocyte counts
- IC50 [4]: 84.1 µM
